# What was measured:
# [1] = test system: DNA isolated from P6 testis or epididymal sperm; test: Methylation sensitive restriction enzyme PCR (MSRE-PCR) DNA methylation analysis; type: in vivo, rat
# Procedure: DNA Methylation Assays: The methylation status of DNA, isolated from control and endocrine disruptor treated P6 testis, or epididymal sperm, used a combination of methylation sensitive restriction enzymes, and a PCR approach, previously described. Briefly, isolated genomic DNA was incubated and digested with RsaI, with either methylation sensitive (HpaII), or insensitive (MspI) restriction enzymes, followed by PCR, with 10 primer sets designed to amplify methylation sites. PCR products were electrophoretically separated, and visualized by Sybr green staining (Molecular Probes, Eugene, Oreg.), and effects of endocrine disruptors, were determined by the presence or absence of specific bands. The PCR products of interest were isolated, cloned and sequenced to determine chromosomal location by BLAST Genbank analysis. P6 testis analysis was repeated using 4 animals from different litters.
# DNA methylation assay: The methylation state of the DNA isolated from CDF control and vinclozolin generation epididymal sperm was determined using a combination of methylation sensitive restriction enzymes and PCR procedures (MSRE-PCR) described above in Example I. Briefly, genomic DNA was isolated from sperm samples using the DNeasy Tissue Kit (Quiagen, Valencia, Calif.). Two micrograms each of control and vinclozolin generation sperm DNA were separately digested with RsaI and either methylation-sensitive enzyme HpaII or insensitive MspI enzymes, followed by PCR with specific primer sets (Table 1). PCR products were electrophoretically separated on polyacrylamide gels and visualized by ethidium bromide staining. The PCR products (i.e. bands) that were reproducibly absent or present between control and vinclozolin generation sperm DNA were excised from stained gels, re-amplified with the same PCR primer set, and then cloned and sequenced. The DNA sequence and chromosomal location were determined using the NCBI Rat genomic databank BLAST system.
# Genomic DNA and Methylation Sensitive Restriction Enzyme PCR: Genomic DNA was isolated from the different control and vinclozolin F1-F3 generation epididymal sperm samples. A total of 1 μg of genomic DNA was digested using methylation-sensitive HpaII or AciI enzymes (37° C., 6-12 hr). The digested DNA was precipitated and dissolved in 30 μl of dH2O. Then, 3 μl aliquots were analyzed by PCR in 30 μl reactions with specific primers (Table 1), subjected to 25 cycles, and the PCR products electrophoretically separated on 1.5% agarose. The differences between the control and vinclozolin F1-F3 generation sperm samples were determined for selected genes found to have high optimal digestion capacity.
# [2] = test system: vinclozolin generation animals; settings: rat, in vivo
# Text: A number of the genes associated with the methylation changes identified have a relationship with various disease states, Table 3. […] Therefore, alterations in the epigenetic (DNA methylation) and/or expression of these genes is associated with a number of disease states. In addition to these correlations to previous literature, the vinclozolin generation animals develop a variety of disease states. Vinclozolin (F1-F4) generation animals between 6-12 months of age develop a variety of disease states or abnormalities, Table 4 [153]. Therefore, the vinclozolin generational animals used develop a variety of diseases, and have the altered epigenetic programming of the male germ-line. Combined observations indicate that the epigenetic alterations in the germ-line DNA and associated genes identified in this Example, are associated with a number of disease states, Tables 3 and 4.
smiles,measurement,setting,value
C=CC1(C)OC(=O)N(c2cc(Cl)cc(Cl)c2)C1=O (stereo not drawn) [vinclozolin],"gene specific MSRE-PCR products for candidates #1, #14, #17/18, #27/28 and #33","[1]; F1, F2 and F3 generation sperm DNA","PCR products were observed in all the vinclozolin generation sperm DNA samples, but not in the controls"
same,individual candidate DNA sequences with potential altered methylation sites,[1]; F3 generation sperm DNA,25
same,candidates with potential altered DNA methylation between control and vinclozolin sperm samples,"[1]; F3 generation sperm, Fisher rats",34
same,different PCR products with apparent altered DNA methylation patterns,"[1]; P6 testis, F1 males, Fisher rats, n=4",Approximately 25
same,animals with altered clone 17 (cytokine-inducible SH2 STAT-like protein gene) methylation in epididymal sperm,[1]; out of 5 F3 animals,2 animals
same,animals with altered clone 17 (cytokine-inducible SH2 STAT-like protein gene) methylation in epididymal sperm,[1]; out of 8 F2 animals,4 animals
same,"Prevalence, Immune Abnormalities",[2],27%
same,"Prevalence, Kidney Disease",[2],40%
same,"Prevalence, Prostate Disease",[2],50%
same,"Prevalence, Testis Defect",[2],30%
same,"Prevalence, Tumor Development (e.g. breast)",[2],17%
same,frequency at which generation animals develop disease states,[2],~85%

# — patent US8586307B2, “Methods for diagnosing epigenetic, transgenerational effects of environmental toxicants on mammalian germ-lines and treating associated diseases” (priority 2005, dated 2013)
